Measurements as given in patent US7271165B2, “Rifamycin analogs and uses thereof” (priority 2003, dated 2007).
In brackets after ≈: the same amount, converted by molar mass.

Legend:
S. aureus = assay: MIC assay, S. aureus; format: cell-based, Staphylococcus aureus
S. pneumo. = assay: MIC assay, S. pneumo.; format: cell-based, Streptococcus pneumoniae
E. faecalis = assay: MIC assay, E. faecalis; format: cell-based, Enterococcus faecalis
H. flu = format: cell-based, H. influenza; details: H. flu
E coli = assay: MIC assay, E coli; format: cell-based

| Compound | MIC (μg/mL) S. aureus (S. aureus) | MIC (μg/mL) S. pneumo. (S. pneumo.) | MIC (μg/mL) E. faecalis (E. faecalis) | MIC (μg/mL) H. flu (H. flu) | MIC (μg/mL) E coli (E coli) |
| --- | --- | --- | --- | --- | --- |
| CCCNC(=O)NC1CCN(c2cc(O)c3nc4c5c6c7c(C)c(O)c5c(=O)c(c-4oc3c2)NC(=O)/C(C)=C\C=C\[C@H](C)[C@H](O)[C@@H](C)[C@@H](O)[C@@H](C)[C@H](O)[C@H](C)[C@@H](OC)/C=C/O[C@@](C)(O7)C6=O)CC1 [Compound 26, 25-O-deacetyl-3′-hydroxy-5′-[4-propyluryl-1-piperidinyl]benzoxazinorifamycin] | 0.008 µg/mL (≈ 8.49 nM) | 0.00012 µg/mL (≈ 0.127 nM) | 2 µg/mL (≈ 2120 nM) | 1 µg/mL (≈ 1060 nM) | >8 µg/mL |
| CO[C@H]1/C=C/O[C@@]2(C)Oc3c(C)c(O)c4c(=O)c(c5oc6cc(N7CCC(NS(C)(=O)=O)CC7)cc(O)c6nc-5c4c3C2=O)NC(=O)/C(C)=C\C=C\[C@H](C)[C@H](O)[C@@H](C)[C@@H](O)[C@@H](C)[C@H](O)[C@@H]1C [Compound 27] | 0.015 µg/mL (≈ 16 nM) | 0.001 µg/mL (≈ 1.07 nM) | 1 µg/mL (≈ 1070 nM) | 0.12 µg/mL (≈ 128 nM) | >8 µg/mL |
| CCCNC(=O)NC1CCN(c2cc(O)c3nc4c5c6c7c(C)c(O)c5c(=O)c(c-4oc3c2)NC(=O)/C(C)=C\C=C\[C@H](C)[C@H](O)[C@@H](C)[C@@H](O)[C@@H](C)[C@H](OC(C)=O)[C@H](C)[C@@H](OC)/C=C/O[C@@](C)(O7)C6=O)CC1 [Compound 28, 3′-hydroxy-5′-[4-propyluryl-1-piperidinyl]benzoxazinorifamycin] | 0.03 µg/mL (≈ 30.5 nM) | 0.002 µg/mL (≈ 2.03 nM) | 1 µg/mL (≈ 1020 nM) | 0.25 µg/mL (≈ 254 nM) | >8 µg/mL |
| CO[C@H]1/C=C/O[C@@]2(C)Oc3c(C)c(O)c4c(=O)c(c5oc6cc(N7CCC(NC(=O)OC(C)C)CC7)cc(O)c6nc-5c4c3C2=O)NC(=O)/C(C)=C\C=C\[C@H](C)[C@H](O)[C@@H](C)[C@@H](O)[C@@H](C)[C@H](O)[C@@H]1C [Compound 29] | 0.008 µg/mL (≈ 8.48 nM) | 0.00012 µg/mL (≈ 0.127 nM) | 2 µg/mL (≈ 2120 nM) | 1 µg/mL (≈ 1060 nM) | >8 µg/mL |
| CCOC(=O)NC1CCN(c2ccc3nc4c5c6c7c(C)c(O)c5c(=O)c(c-4n(C)c3c2)NC(=O)/C(C)=C\C=C\[C@H](C)[C@H](O)[C@@H](C)[C@@H](O)[C@@H](C)[C@H](O)[C@H](C)[C@@H](OC)/C=C/O[C@@](C)(O7)C6=O)CC1 [Compound 31] | 0.03 µg/mL (≈ 32.4 nM) | 0.0005 µg/mL (≈ 0.54 nM) | 0.25 µg/mL (≈ 270 nM) | 0.25 µg/mL (≈ 270 nM) | 8 µg/mL (≈ 8640 nM) |
| CO[C@H]1/C=C/O[C@@]2(C)Oc3c(C)c(O)c4c(=O)c(c5oc6cc(N7CCC(N)CC7)cc(O)c6nc-5c4c3C2=O)NC(=O)/C(C)=C\C=C\[C@H](C)[C@H](O)[C@@H](C)[C@@H](O)[C@@H](C)[C@H](OC(C)=O)[C@@H]1C [Compound 33, 3′-hydroxy-5′-[4-amino-1-piperidinyl]benzoxazinorifamycin] | 0.008 µg/mL (≈ 8.9 nM) | 0.00006 µg/mL (≈ 0.0667 nM) | 1 µg/mL (≈ 1110 nM) | 1 µg/mL (≈ 1110 nM) | >8 µg/mL |
| CCNC(=O)NC1CCN(c2cc(O)c3nc4c5c6c7c(C)c(O)c5c(=O)c(c-4oc3c2)NC(=O)/C(C)=C\C=C\[C@H](C)[C@H](O)[C@@H](C)[C@@H](O)[C@@H](C)[C@H](OC(C)=O)[C@H](C)[C@@H](OC)/C=C/O[C@@](C)(O7)C6=O)CC1 [Compound 34, 3′-hydroxy-5′-[4-ethyluryl-1-piperidinyl]benzoxazinorifamycin] | 0.03 µg/mL (≈ 30.9 nM) | 0.001 µg/mL (≈ 1.03 nM) | 2 µg/mL (≈ 2060 nM) | 0.5 µg/mL (≈ 515 nM) | 8 µg/mL (≈ 8250 nM) |
| CCCS(=O)(=O)NC1CCN(c2cc(O)c3nc4c5c6c7c(C)c(O)c5c(=O)c(c-4oc3c2)NC(=O)C(C)=CC=CC(C)C(O)C(C)C(O)C(C)C(OC(C)=O)C(C)C(OC)C=COC(C)(O7)C6=O)CC1 (centres unmarked) [Compound 35] | 0.015 µg/mL (≈ 14.9 nM) | 0.00025 µg/mL (≈ 0.249 nM) | 4 µg/mL (≈ 3980 nM) | 0.5 µg/mL (≈ 497 nM) | 8 µg/mL (≈ 7960 nM) |
| CCCC(=O)NC1CCN(c2cc(O)c3nc4c5c6c7c(C)c(O)c5c(=O)c(c-4oc3c2)NC(=O)C(C)=CC=CC(C)C(O)C(C)C(O)C(C)C(O)C(C)C(OC)C=COC(C)(O7)C6=O)CC1 (centres unmarked) [Compound 36, 25-O-deacetyl-3′-hydroxy-5′-[4-butanamide-1-piperidinyl]benzoxazinorifamycin] | 0.004 µg/mL (≈ 4.31 nM) | 0.00003 µg/mL (≈ 0.0324 nM) | 2 µg/mL (≈ 2160 nM) | 0.25 µg/mL (≈ 270 nM) | >8 µg/mL |
| CCNC(=O)NC1CCN(c2cc(O)c3nc4c5c6c7c(C)c(O)c5c(=O)c(c-4oc3c2)NC(=O)C(C)=CC=CC(C)C(O)C(C)C(O)C(C)C(O)C(C)C(OC)C=COC(C)(O7)C6=O)CC1 (centres unmarked) [Compound 37, 25-O-deacetyl-3′-hydroxy-5′-[4-ethyluryl-1-piperidinyl]benzoxazinorifamycin] | 0.03 µg/mL (≈ 32.3 nM) | 0.004 µg/mL (≈ 4.31 nM) | 2 µg/mL (≈ 2160 nM) | 0.25 µg/mL (≈ 269 nM) | >8 µg/mL |
| COC1C=COC2(C)Oc3c(C)c(O)c4c(=O)c(c5oc6cc(N7CCC(NS(=O)(=O)C(F)(F)F)CC7)cc(O)c6nc-5c4c3C2=O)NC(=O)C(C)=CC=CC(C)C(O)C(C)C(O)C(C)C(O)C1C (centres unmarked) [Compound 38] | 0.12 µg/mL (≈ 121 nM) | 0.015 µg/mL (≈ 15.2 nM) | 8 µg/mL (≈ 8090 nM) | 0.25 µg/mL (≈ 253 nM) | >8 µg/mL |
| COC1C=COC2(C)Oc3c(C)c(O)c4c(=O)c(c5oc6cc(N7CCC(N)CC7)cc(O)c6nc-5c4c3C2=O)NC(=O)C(C)=CC=CC(C)C(O)C(C)C(O)C(C)C(O)C1C (centres unmarked) [Compound 39, 25-O-deacetyl-3′-hydroxy-5′-[4-amino-1-piperidinyl]benzoxazinorifamycin] | 0.03 µg/mL (≈ 35 nM) | 0.001 µg/mL (≈ 1.17 nM) | 2 µg/mL (≈ 2330 nM) | 0.25 µg/mL (≈ 292 nM) | >8 µg/mL |
| COCCOC(=O)NC1CCN(c2cc(O)c3nc4c5c6c7c(C)c(O)c5c(=O)c(c-4oc3c2)NC(=O)C(C)=CC=CC(C)C(O)C(C)C(O)C(C)C(OC(C)=O)C(C)C(OC)C=COC(C)(O7)C6=O)CC1 (centres unmarked) [Compound 41, 3′-hydroxy-5′-[4-methoxyethylcarbamyl-1-piperidinyl]benzoxazinorifamycin] | 0.25 µg/mL (≈ 250 nM) | 0.0005 µg/mL (≈ 0.499 nM) | >8 µg/mL | 2 µg/mL (≈ 2000 nM) | >8 µg/mL |
| COC1C=COC2(C)Oc3c(C)c(O)c4c(=O)c(c5oc6cc(N7CCC(NC(C)=O)CC7)cc(O)c6nc-5c4c3C2=O)NC(=O)C(C)=CC=CC(C)C(O)C(C)C(O)C(C)C(O)C1C (centres unmarked) [Compound 43, 25-O-deacetyl-3′-hydroxy-5′-[4-acetamide-1-piperidinyl]benzoxazinorifamycin] | 0.03 µg/mL (≈ 33.4 nM) | 0.002 µg/mL (≈ 2.22 nM) | 2 µg/mL (≈ 2220 nM) | 0.5 µg/mL (≈ 556 nM) | >8 µg/mL |
| COC1C=COC2(C)Oc3c(C)c(O)c4c(=O)c(c5oc6cc(N7CCC(NC(C)=O)CC7)cc(O)c6nc-5c4c3C2=O)NC(=O)C(C)=CC=CC(C)C(O)C(C)C(O)C(C)C(OC(C)=O)C1C (centres unmarked) [Compound 44] | 0.06 µg/mL (≈ 63.8 nM) | 0.008 µg/mL (≈ 8.5 nM) | 2 µg/mL (≈ 2130 nM) | 0.25 µg/mL (≈ 266 nM) | >8 µg/mL |
| COC1C=COC2(C)Oc3c(C)c(O)c4c(=O)c(c5oc6cc(N7CCC(NC(=O)SC)CC7)cc(O)c6nc-5c4c3C2=O)NC(=O)C(C)=CC=CC(C)C(O)C(C)C(O)C(C)C(OC(C)=O)C1C (centres unmarked) [Compound 45, 3′-hydroxy-5′-[4-S-methylthiocarbamyl-1-piperidinyl]benzoxazinorifamycin] | 0.015 µg/mL (≈ 15.4 nM) | 0.001 µg/mL (≈ 1.03 nM) | 4 µg/mL (≈ 4110 nM) | 0.5 µg/mL (≈ 514 nM) | 8 µg/mL (≈ 8220 nM) |
| COC1C=COC2(C)Oc3c(C)c(O)c4c(=O)c(c5oc6cc(N7CC8CCCN(C(C)=O)C8C7)cc(O)c6nc-5c4c3C2=O)NC(=O)C(C)=CC=CC(C)C(O)C(C)C(O)C(C)C(O)C1C [Compound 46, 25-O-deacetyl-3′-hydroxy-5′-[1-acetyl-(4aR,7aR)-octahydro-6H-pyrrolo[3,4-b]pyridin-6-yl]benzoxazinorifamycin] | 0.004 µg/mL (≈ 4.32 nM) | 0.00006 µg/mL (≈ 0.0649 nM) | 2 µg/mL (≈ 2160 nM) | 0.5 µg/mL (≈ 541 nM) | >8 µg/mL |
| COC1C=COC2(C)Oc3c(C)c(O)c4c(=O)c(c5oc6cc(N7CC8CCCN(C(C)=O)C8C7)cc(O)c6nc-5c4c3C2=O)NC(=O)C(C)=CC=CC(C)C(O)C(C)C(O)C(C)C(OC(C)=O)C1C [Compound 47, 3′-hydroxy-5′-[1-acetyl-(4aR,7aR)-octahydro-6H-pyrrolo[3,4-b]pyridin-6-yl]benzoxazinorifamycin] | 0.008 µg/mL (≈ 8.27 nM) | 0.002 µg/mL (≈ 2.07 nM) | 1 µg/mL (≈ 1030 nM) | 0.25 µg/mL (≈ 259 nM) | >8 µg/mL |
| COC1C=COC2(C)Oc3c(C)c(O)c4c(=O)c(c5oc6cc(N7CCC(NC(=O)OC(C)(C)C)CC7)cc(O)c6nc-5c4c3C2=O)NC(=O)C(C)=CC=CC(C)C(O)C(C)C(O)C(C)C(OC(C)=O)C1C (centres unmarked) [Compound 48] | 0.008 µg/mL (≈ 8.01 nM) | 0.00025 µg/mL (≈ 0.25 nM) | 2 µg/mL (≈ 2000 nM) | 1 µg/mL (≈ 1000 nM) | >8 µg/mL |
